According to patent publication US6685915B2, “Extended-linear polymeric contrast agents, and synthesizing methods, for medical imaging” (General Electric Company, priority 1999, dated 2004):

Assay: blood circulation time
Assay type: in vivo
Text: Furthermore, the blood circulation times can be adjusted by varying the polymer length.

O=C([O-])CN(CCN(CC(=O)[O-])CC(=O)O)CCN(CC(=O)[O-])CC(=O)O.[Gd+3] [Gd-DTPA, gadolinuim- diethylentriaminepentaaceticacid]
circulation time constant: 15 min
